In assay [1] the test system is retroviral proteases associated with bovine leukemia virus. Conditions: cited from earlier work.
Assay [2] has as its target retroviral proteases associated with Moloney murine leukemia virus (Moloney murine leukemia virus, UniProt P03355). The note with it: cited from earlier work.
For assay [3], the target named is retroviral proteases associated with human T-cell leukemia virus (Human T-cell leukemia virus 1, UniProt P10274). Conditions: cited from earlier work.
Chain of retroviral proteases associated with human T-cell leukemia virus (P10274 450-574): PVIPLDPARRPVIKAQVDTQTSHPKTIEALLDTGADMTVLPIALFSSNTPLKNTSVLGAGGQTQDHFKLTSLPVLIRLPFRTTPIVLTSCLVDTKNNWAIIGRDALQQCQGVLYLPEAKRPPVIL
Assay [4] deals with HIV protease. The note with it: substrate of HIV protease; MENDT buffer pH 6.0, 37°C.
Procedure: The enzyme used to assay the peptide of this invention was produced in this manner and purified from the cell pellet as follows. The E. coli cell pellet was resuspended in a buffer consisting of 50 mM Tris-­HCl, pH 7.5; 1.0 mM each DTT, EDTA and PMSF (phenylmethylsulfonyl fluoride). The cells were lysed by sonication and insoluble material was removed by centrifugation at 15,000 x g av, for 15 min. The clarified supernatant was then brought to 40% of saturation with ammonium sulfate This suspension was stirred at room temperature for 30 min. and then centrifuged as above. […] The effluent of the column was monitored at 280 nm and 1 min. fractions collected.
Initial rate data for oligopeptides were determined at pH 6.0, 37°C. […] Samples were centrifuged at 17,000 rpm for 5 min., and the peptide substrates and products were separated and quantified (by peak integration) by reverse phase HPLC. Initial rates were determined as (mM peptide product formed)/min based on the percentage of conversion of substrate to product for a given concentration of substrate. […] Kinetic constants (Michaelis constants, maximal velocities) were determined by fitting initial rate data to the Michaelis-Menten equation (v = Vmax(S)/(Km + (S))) using the Fortran program of Cleland (W. W. Cleland, Adv. Enzymol. 29, 1, (1967)). […]

Where a SMILES comes first, the peptide text is derived from it. [ ]: non-standard residue; d: D form. The star is where a group is joined. Sta = CC(C)C[C@H](N)[C@@H](O)CC(=O)O; Isovaleryl = CC(C)CC(=O)*

Chain of retroviral proteases associated with Moloney murine leukemia virus (P03355 535-659): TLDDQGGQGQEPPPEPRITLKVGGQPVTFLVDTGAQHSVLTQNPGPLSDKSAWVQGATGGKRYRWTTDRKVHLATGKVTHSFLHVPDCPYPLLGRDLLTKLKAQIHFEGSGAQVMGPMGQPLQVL

As for `CC(C)CC(=O)N[C@H](C(=O)N[C@H](C(=O)N[C@@H](CC(C)C)[C@@H](O)CC(=O)N[C@@H](C)C(=O)N[C@@H](CC(C)C)[C@@H](O)CC(=O)O)C(C)C)C(C)C` [pepstatin] (Isovaleryl-VV[Sta]A[Sta]-OH), the “inhibitor of the retroviral protease” value in assay [1], in assay [2] and in assay [3] was “weak inhibitor” in each case.
Regarding “N-acetyl-L-arginyl-L-alanyl-L-seryl-L-glutaminyl-L-asparaginyl-L-tyrosyl-L-prolyl-L-valyl-L-valinamide”, in assay [4], the Km (as a rule, the substrate concentration at which the rate is half of its maximum) worked out at 7 mM.

The values are drawn from patent EP0352000A2, “Retroviral protease binding peptides” (SMITHKLINE BECKMAN CORPORATION, priority 1988, dated 1990).
